{"source": "patent US7105566B2", "about": "“Methods of treatment during vascular procedures” (Allergan, Inc., priority 2002, dated 2006)", "key": {"female ZDF rats": {"test_system": "female ZDF rats", "assay": "Serum triglycerides and cholesterol in female ZDF rats, Compound 1 and Compound 2 at 10 mg/kg", "type": "in vivo, rat", "settings": "10 mg/kg oral", "method": "A similar experiment to that described above was performed. Briefly, female ZDF rats (12 weeks old) were fed either a PM 5008 diet or a GMI 13004 diet. Control vehicle consisted of 2% DMSO and 98% corn oil. Compound 1 and Compound 2 were administered at a dosage of 10 mg/kg body weight. Dosings were administered at approximately 8 a.m. Serum was collected on the first day of dosing at approximately 8 a.m. (Day 1, 0 hour) and 2 p.m. (Day 1, 6 hour); the fourth day of dosing at approximately 8 a.m. (Day 4, 0 hour); and the last day of dosing at approximately 8 a.m. (Day 7, 0 hour) and 2 p.m. (Day 7, 6 hour). The levels of triglycerides and cholesterol in the serum samples were measured. The results are shown in Table 2 and are illustrated graphically in FIGS. 3A and 3B."}, "male SJL mice [1]": {"test_system": "male SJL mice", "assay": "Serum triglycerides (STG) in male SJL mice", "type": "in vivo, mouse", "method": "Male SJL mice were dosed orally with vehicle, Compound 1 (an RAR pan-antagonist), or Compound 3 (an RARE antagonist) for 4 consecutive days. The structure and synthesis of Compound 1 is described in Example I. The structure of Compound 3 is shown below, and the compound was synthesized using routine methods:\nThe test compounds were dissolved in corn oil and given at a dosage/volume of 20 mg/5 ml/kg.\nOn day 3, serum triglycerides (STG) were determined from samples collected at 7 a.m.\n(§1) On day 4, animals were fasted after dosing, starting at 8 a.m. Following 6 hours of fasting, blood samples were collected prior to intravenous injection of WR-1339 at 100 mg/5 ml/kg. Additional serum samples were collected at 1 and 2 hours after WR-1339 injection. WR-1339 is a detergent that inactivates lipoprotein lipase and thus prevents the removal of triglycerides from circulation. By measuring the increase of STG after WR-1339 administration in fasted animals, the hepatic triglyceride (HTG) output during fasting can be estimated.\n(§2) Due to the lack of effect of Compound 3 at 20 mg/kg, the dose was increased to 100 mg/kg in the same set of mice. STG was determined on day 3 prior to dosing (Day 3, 8 a.m.). […] To ensure that Compound 3 would be bioavailable, Compound 3 was dissolved in DMSO and given by intraperitoneal injections, once at 4 p.m. on day 3 and once at 8 a.m. on day 4, at a dosage of 100 mg/kg/injection. Administration of WR-1339 and blood collections on day 4 were similarly conducted as described above."}, "male SJL mice [2]": {"test_system": "male SJL mice", "assay": "Hepatic triglyceride (HTG) output after WR-1339 injection in fasted male SJL mice", "type": "in vivo, mouse", "method": "as §1, §2"}, "[3]": {"test_system": "chronic hypertriglyceridemic patients", "settings": "de Man et al. 2000; cited from earlier work"}, "[4]": {"settings": "GMI 13004 diet, group mean of 5 rats, first day of dosing, 2 p.m."}, "[5]": {"settings": "GMI 13004 diet, group mean of 5 rats, first day of dosing, about 8 a.m. (baseline)"}, "[6]": {"settings": "GMI 13004 diet, group mean of 5 rats, fourth day of dosing, 8 a.m."}, "[7]": {"settings": "GMI 13004 diet, group mean of 5 rats, last day of dosing, 2 p.m."}, "[8]": {"settings": "GMI 13004 diet, group mean of 5 rats, last day of dosing, 8 a.m."}, "[9]": {"settings": "GMI 13004 diet, individual animals, first day of dosing, 2 p.m."}, "[10]": {"settings": "GMI 13004 diet, individual animals, first day of dosing, about 8 a.m. (baseline)"}, "[11]": {"settings": "GMI 13004 diet, individual animals, fourth day of dosing, 8 a.m."}, "[12]": {"settings": "GMI 13004 diet, individual animals, last day of dosing, 2 p.m."}, "[13]": {"settings": "GMI 13004 diet, individual animals, last day of dosing, 8 a.m."}}, "note": "Values joined by “and” are separate entries in the source; they are usually repeats but may differ in a detail not shown here. Equal entries are not always repeated.", "data": [{"smiles": "Cc1ccc(C2=CC(C)(C)Oc3c(Br)cc(C(=O)Nc4ccc(C(=O)O)c(F)c4)cc32)cc1", "note": "[Compound 2]", "values": [{"measurement": "effect on lowering serum cholesterol", "setting": "female ZDF rats", "value": "more modest effect"}, {"measurement": "serum triglycerides as % of pre-treatment levels", "setting": "female ZDF rats", "value": "about 40%"}, {"measurement": "Cholesterol day 1, 6 hr, Mean", "setting": "female ZDF rats; [4]", "value": 106}, {"measurement": "Triglycerides day 1, 6 hr, Mean", "setting": "female ZDF rats; [4]", "value": 1321}, {"measurement": "Cholesterol day 1, 0 hr, Mean", "setting": "female ZDF rats; [5]", "value": 119}, {"measurement": "Triglycerides day 1, 0 hr, Mean", "setting": "female ZDF rats; [5]", "value": 1471}, {"measurement": "Cholesterol day 4, 0 hr, Mean", "setting": "female ZDF rats; [6]", "value": 77}, {"measurement": "Triglycerides day 4, 0 hr, Mean", "setting": "female ZDF rats; [6]", "value": 571}, {"measurement": "Cholesterol day 7, 6 hr, Mean", "setting": "female ZDF rats; [7]", "value": 62}, {"measurement": "Triglycerides day 7, 6 hr, Mean", "setting": "female ZDF rats; [7]", "value": 602}, {"measurement": "Cholesterol day 7, 0 hr, Mean", "setting": "female ZDF rats; [8]", "value": 66}, {"measurement": "Triglycerides day 7, 0 hr, Mean", "setting": "female ZDF rats; [8]", "value": 560}, {"measurement": "Cholesterol day 1, 6 hr", "setting": "female ZDF rats; [9]", "value": "114 and 84 and 90 and 108 and 132"}, {"measurement": "Triglycerides day 1, 6 hr", "setting": "female ZDF rats; [9]", "value": "1260 and 1338 and 1140 and 1344 and 1524"}, {"measurement": "Cholesterol day 1, 0 hr", "setting": "female ZDF rats; [10]", "value": "120 (2×) and 96 (2×) and 162"}, {"measurement": "Triglycerides day 1, 0 hr", "setting": "female ZDF rats; [10]", "value": "1464 and 1194 and 1284 and 1668 and 1746"}, {"measurement": "Cholesterol day 4, 0 hr", "setting": "female ZDF rats; [11]", "value": "84 and 66 and 72 (2×) and 90"}, {"measurement": "Triglycerides day 4, 0 hr", "setting": "female ZDF rats; [11]", "value": "642 and 804 and 210 and 630 and 570"}, {"measurement": "Cholesterol day 7, 6 hr", "setting": "female ZDF rats; [12]", "value": "72 and 60 (2×) and 54 and 66"}, {"measurement": "Triglycerides day 7, 6 hr", "setting": "female ZDF rats; [12]", "value": "402 and 600 and 360 and 738 and 912"}, {"measurement": "Cholesterol day 7, 0 hr", "setting": "female ZDF rats; [13]", "value": "78 (2×) and 60 (2×) and 54"}, {"measurement": "Triglycerides day 7, 0 hr", "setting": "female ZDF rats; [13]", "value": "294 and 588 and 474 and 726 and 720"}]}, {"smiles": "Cc1ccc(C2=CCC(C)(C)c3cc(O)c(C(=O)Nc4ccc(C(=O)O)c(F)c4)cc32)cc1", "note": "[Compound 3]", "values": [{"measurement": "non-fasting STG (Day 3, 8 a.m.)", "setting": "male SJL mice [1]; 20 mg/kg oral daily", "value": "not observed"}, {"measurement": "STG 16 hours after a single intraperitoneal dose (Day 4, 8 a.m.)", "setting": "male SJL mice [1]; 100 mg/kg intraperitoneal in DMSO", "value": "clear lowering of STG"}, {"measurement": "STG on day 3 prior to dosing (Day 3, 8 a.m.)", "setting": "male SJL mice [1]; 100 mg/kg oral", "value": "no lowering of STG was observed"}, {"measurement": "STG after fasting (Day 4, 2 p.m.)", "setting": "male SJL mice [1]; 100 mg/kg/injection intraperitoneal", "value": "effect disappeared after fasting"}, {"measurement": "HTG output after WR-1339 injection", "setting": "male SJL mice [2]; 20 mg/kg oral daily for 4 days, fasted", "value": "not observed"}, {"measurement": "HTG output", "setting": "male SJL mice [2]; 100 mg/kg/injection intraperitoneal, WR-1339, fasted", "value": "reduced"}]}, {"smiles": "CC(C)c1c(C(=O)Nc2ccccc2)c(-c2ccccc2)c(-c2ccc(F)cc2)n1CC[C@@H](O)C[C@@H](O)CC(=O)O", "note": "[atorvastatin]", "values": [{"measurement": "effect on impaired vasodilation", "setting": "[3]", "value": "reverse the impaired vasodilation"}]}]}
